Data on 26 compounds can be found in ChEMBL document CHEMBL6127088, “Novel 2-aminothiazole analogues both as polymyxin E synergist and antimicrobial agent against multidrug-resistant Gram-positive bacteria” (2024).

Assay type in all cases: functional
For test [1], the system named is Acinetobacter baumannii. Briefly: Antimicrobial activity against Acinetobacter baumannii ATCC 19606 incubated for 18 hrs by broth microdilution method. In general terms: Broth dilution looks for growth in wells or tubes with falling amounts of substance.
Test [2] deals with Acinetobacter baumannii. Briefly: Synergistic antimicrobial activity against Acinetobacter baumannii ATCC 19606 assessed as fractional inhibitory concentration index in presence of polymyxin E incubated for 18 to 20 hrs by chequerboard assay. To be noted: time 18-20 hrs.
For another test, the system named is Staphylococcus aureus. Briefly: Antimicrobial activity against methicillin/ofloxacin-resistant Staphylococcus aureus ATCC 43300 assessed as minimum inhibitory concentration incubated for 18 hrs by broth microdilution method.
The subject of the next test is Enterococcus faecalis. Briefly: Antimicrobial activity against vancomycin-resistant Enterococcus faecalis ATCC 51299 assessed as minimum inhibitory concentration incubated for 18 hrs by broth microdilution method.
A further test has as its system Bacillus subtilis. Briefly: Antimicrobial activity against Bacillus subtilis ATCC 20678 incubated for 18 hrs by broth microdilution method.

Values after ≈ are worked out from the molar mass of the structure shown.

What is called MIC is the lowest concentration that inhibits growth of the organism. Take `Fc1cc(Nc2nc(C3CCOCC3)cs2)cc(C(F)(F)F)c1`: the MIC against Acinetobacter baumannii [1] is over 256 µg/mL; with Staphylococcus aureus, 64 µg/mL (≈ 185 µM); in the test with Enterococcus faecalis it was 128 µg/mL (≈ 370 µM); against Bacillus subtilis, 64 µg/mL (≈ 185 µM). In addition, in the test on Acinetobacter baumannii [2], the “fractional inhibitory concentration index (FICI)” value is listed as 1.031.

With `Cc1ccc(C(F)(F)F)cc1Nc1nc(-c2ccc(F)cc2F)cs1`, the MIC is over 256 µg/mL in the test with Acinetobacter baumannii [1], 256 µg/mL (≈ 691 µM) in the test with Staphylococcus aureus, 256 µg/mL (≈ 691 µM) in the test on Enterococcus faecalis and 2 µg/mL (≈ 5.4 µM) against Bacillus subtilis. Besides, in the test on Acinetobacter baumannii [2], the “fractional inhibitory concentration index (FICI)” value came to 0.093.

Regarding `Oc1ccc(Nc2nc(-c3ccc(F)cc3F)cs2)cc1C(F)(F)F`, the MIC was over 256 µg/mL in the test on Acinetobacter baumannii [1], 4 µg/mL (≈ 10.7 µM) in the test with Staphylococcus aureus, 2 µg/mL (≈ 5.37 µM) with Enterococcus faecalis and 2 µg/mL (≈ 5.37 µM) against Bacillus subtilis. Also, the “fractional inhibitory concentration index (FICI)” value in the test with Acinetobacter baumannii [2] came to 0.187.

On to `Fc1ccc(-c2csc(Nc3ccncc3)n2)c(F)c1`, for which the MIC is 128 µg/mL (≈ 442 µM) against Acinetobacter baumannii [1], 4 µg/mL (≈ 13.8 µM) with Staphylococcus aureus, 32 µg/mL (≈ 111 µM) with Enterococcus faecalis and 4 µg/mL (≈ 13.8 µM) with Bacillus subtilis. Also, the “fractional inhibitory concentration index (FICI)” value in the test with Acinetobacter baumannii [2] is 1.031.

For `O=C(Nc1ccccn1)c1csc(Nc2cc(F)cc(C(F)(F)F)c2)n1`, the MIC in the test with Acinetobacter baumannii [1] stood at 64 µg/mL (≈ 167 µM); in the test on Staphylococcus aureus, 256 µg/mL (≈ 670 µM); with Enterococcus faecalis, 256 µg/mL (≈ 670 µM); against Bacillus subtilis it was 256 µg/mL (≈ 670 µM). Further, the “fractional inhibitory concentration index (FICI)” value in the test on Acinetobacter baumannii [2] came to 0.281.

In the case of `C/C(=N\Nc1cnccn1)c1csc(Nc2cc(F)cc(C(F)(F)F)c2)n1`, the MIC with Acinetobacter baumannii [1] turned out to be 128 µg/mL (≈ 323 µM); in the test with Staphylococcus aureus it was 64 µg/mL (≈ 161 µM); in the test with Enterococcus faecalis, 128 µg/mL (≈ 323 µM); in the test with Bacillus subtilis it was 256 µg/mL (≈ 646 µM). Further, the “fractional inhibitory concentration index (FICI)” value with Acinetobacter baumannii [2] is recorded as 0.75.

With `Fc1cc(Nc2nc(-c3cc4ccccc4o3)cs2)cc(C(F)(F)F)c1`, the MIC against Acinetobacter baumannii [1] was over 256 µg/mL; with Staphylococcus aureus it was 1 µg/mL (≈ 2.64 µM); in the test with Enterococcus faecalis it was 2 µg/mL (≈ 5.29 µM); against Bacillus subtilis, 2 µg/mL (≈ 5.29 µM). In addition, the “fractional inhibitory concentration index (FICI)” value with Acinetobacter baumannii [2] amounted to 0.187.

Consider `Fc1ccc(-c2csc(Nc3cccnc3)n2)c(F)c1`, for which the MIC against Acinetobacter baumannii [1] came to 128 µg/mL (≈ 442 µM); in the test with Staphylococcus aureus, 128 µg/mL (≈ 442 µM); with Enterococcus faecalis, 256 µg/mL (≈ 885 µM); against Bacillus subtilis, 256 µg/mL (≈ 885 µM). In addition, the “fractional inhibitory concentration index (FICI)” value in the test with Acinetobacter baumannii [2] is 1.031.

For `COc1cc(Nc2nc(-c3ccc(F)cc3F)cs2)cc(C(F)(F)F)c1`, the MIC against Acinetobacter baumannii [1] was over 128 µg/mL; in the test on Staphylococcus aureus it was 256 µg/mL (≈ 663 µM); in the test with Enterococcus faecalis, 256 µg/mL (≈ 663 µM); against Bacillus subtilis, 2 µg/mL (≈ 5.18 µM). Moreover, in the test with Acinetobacter baumannii [2], the “fractional inhibitory concentration index (FICI)” value is on record as 0.187.

As for `Oc1cc(Nc2nc(-c3ccc(F)cc3F)cs2)cc(C(F)(F)F)c1`, the MIC in the test with Acinetobacter baumannii [1] was over 256 µg/mL; in the test on Staphylococcus aureus, 1 µg/mL (≈ 2.69 µM); in the test with Enterococcus faecalis, 256 µg/mL (≈ 688 µM); in the test with Bacillus subtilis it was 0.5 µg/mL (≈ 1.34 µM). The “fractional inhibitory concentration index (FICI)” value with Acinetobacter baumannii [2] was found to be 0.25.

Consider `C/C(=N\Nc1ccc(C(=O)O)cn1)c1csc(Nc2cc(F)cc(C(F)(F)F)c2)n1`, for which the minimum inhibitory concentration (MIC) against Acinetobacter baumannii [1] is over 256 µg/mL; with Staphylococcus aureus, 64 µg/mL (≈ 146 µM); in the test with Enterococcus faecalis, 128 µg/mL (≈ 291 µM); in the test on Bacillus subtilis it was 64 µg/mL (≈ 146 µM). Further, the “fractional inhibitory concentration index (FICI)” value in the test on Acinetobacter baumannii [2] came out at 1.031.

For the compound `Cn1cc(-c2csc(Nc3cc(F)cc(C(F)(F)F)c3)n2)cn1`, the MIC was over 256 µg/mL in the test with Acinetobacter baumannii [1], 256 µg/mL (≈ 748 µM) in the test on Staphylococcus aureus, 256 µg/mL (≈ 748 µM) with Enterococcus faecalis and 256 µg/mL (≈ 748 µM) against Bacillus subtilis. Besides, in the test on Acinetobacter baumannii [2], the “fractional inhibitory concentration index (FICI)” value was 0.281.

`Fc1ccc(-c2csc(Nc3c(Cl)cc(C(F)(F)F)cc3Cl)n2)c(F)c1`: the MIC against Acinetobacter baumannii [1] is over 256 µg/mL; with Staphylococcus aureus, 256 µg/mL (≈ 602 µM); in the test on Enterococcus faecalis it was 256 µg/mL (≈ 602 µM); in the test on Bacillus subtilis, 256 µg/mL (≈ 602 µM). In addition, the “fractional inhibitory concentration index (FICI)” value with Acinetobacter baumannii [2] stood at 1.031.

`Fc1cc(Nc2nc(-c3ccccn3)cs2)cc(C(F)(F)F)c1`: the MIC is 64 µg/mL (≈ 189 µM) against Acinetobacter baumannii [1], 1 µg/mL (≈ 2.95 µM) with Staphylococcus aureus, 64 µg/mL (≈ 189 µM) with Enterococcus faecalis and 0.5 µg/mL (≈ 1.47 µM) with Bacillus subtilis. In the test on Acinetobacter baumannii [2], the “fractional inhibitory concentration index (FICI)” value came out at 0.078.

On to `C/C(=N\NC1=NCCN1)c1csc(Nc2cc(F)cc(C(F)(F)F)c2)n1`, for which the MIC against Acinetobacter baumannii [1] was over 256 µg/mL; with Staphylococcus aureus, 16 µg/mL (≈ 41.4 µM); in the test on Enterococcus faecalis it was 16 µg/mL (≈ 41.4 µM); against Bacillus subtilis, 8 µg/mL (≈ 20.7 µM). In addition, the “fractional inhibitory concentration index (FICI)” value in the test with Acinetobacter baumannii [2] was found to be 0.75.

Regarding `C/C(=N\Nc1ncccc1Cl)c1csc(Nc2cc(F)cc(C(F)(F)F)c2)n1`, the minimum inhibitory concentration (MIC) in the test on Acinetobacter baumannii [1] was 128 µg/mL (≈ 298 µM); in the test with Staphylococcus aureus, 2 µg/mL (≈ 4.65 µM); with Enterococcus faecalis, 4 µg/mL (≈ 9.31 µM); in the test on Bacillus subtilis, 1 µg/mL (≈ 2.33 µM). Also, in the test with Acinetobacter baumannii [2], the “fractional inhibitory concentration index (FICI)” value worked out at 0.094.

Regarding `Fc1ccc(-c2csc(Nc3ccc(Cl)c(C(F)(F)F)c3)n2)c(F)c1`, the MIC against Acinetobacter baumannii [1] is over 256 µg/mL; in the test on Staphylococcus aureus, 1 µg/mL (≈ 2.56 µM); with Enterococcus faecalis, 2 µg/mL (≈ 5.12 µM); against Bacillus subtilis, 1 µg/mL (≈ 2.56 µM). Further, the “fractional inhibitory concentration index (FICI)” value in the test on Acinetobacter baumannii [2] is recorded as 0.094.

Consider `CCOc1ccc(Nc2nc(-c3ccc(F)cc3F)cs2)cc1C(F)(F)F`, for which the MIC was over 256 µg/mL against Acinetobacter baumannii [1], 8 µg/mL (≈ 20 µM) with Staphylococcus aureus, 4 µg/mL (≈ 9.99 µM) with Enterococcus faecalis and 4 µg/mL (≈ 9.99 µM) against Bacillus subtilis. The “fractional inhibitory concentration index (FICI)” value in the test on Acinetobacter baumannii [2] amounted to 0.094.

Regarding `CC(C)(C)c1csc(Nc2cc(F)cc(C(F)(F)F)c2)n1`, the MIC in the test on Acinetobacter baumannii [1] is over 256 µg/mL; in the test on Staphylococcus aureus, 8 µg/mL (≈ 25.1 µM); with Enterococcus faecalis, 8 µg/mL (≈ 25.1 µM); against Bacillus subtilis it was 4 µg/mL (≈ 12.6 µM). Besides, in the test on Acinetobacter baumannii [2], the “fractional inhibitory concentration index (FICI)” value is on record as 0.156.

For `Fc1ccc(-c2csc(Nc3cccc(C(F)(F)F)c3)n2)c(F)c1`, the MIC in the test on Acinetobacter baumannii [1] was over 256 µg/mL; with Staphylococcus aureus, 4 µg/mL (≈ 11.2 µM); with Enterococcus faecalis, 2 µg/mL (≈ 5.61 µM); with Bacillus subtilis it was 2 µg/mL (≈ 5.61 µM). Moreover, the “fractional inhibitory concentration index (FICI)” value in the test on Acinetobacter baumannii [2] was found to be 0.094.

Take `CS(=O)(=O)c1ccc(Nc2nc(-c3ccc(F)cc3F)cs2)cc1`: the MIC against Acinetobacter baumannii [1] was over 256 µg/mL; in the test on Staphylococcus aureus, 256 µg/mL (≈ 699 µM); in the test on Enterococcus faecalis, 256 µg/mL (≈ 699 µM); against Bacillus subtilis it was 256 µg/mL (≈ 699 µM). For the same compound, in the test on Acinetobacter baumannii [2], the “fractional inhibitory concentration index (FICI)” value was 1.031.

As for `C/C(=N\NC(=N)N)c1csc(Nc2cc(F)cc(C(F)(F)F)c2)n1`, the MIC was over 256 µg/mL in the test on Acinetobacter baumannii [1], 8 µg/mL (≈ 22.2 µM) with Staphylococcus aureus, 8 µg/mL (≈ 22.2 µM) in the test with Enterococcus faecalis and 4 µg/mL (≈ 11.1 µM) with Bacillus subtilis. Also, the “fractional inhibitory concentration index (FICI)” value in the test on Acinetobacter baumannii [2] stood at 0.75.

In the case of `Fc1cc(Nc2nc(C3CC3)cs2)cc(C(F)(F)F)c1`, the MIC was over 256 µg/mL in the test with Acinetobacter baumannii [1], 32 µg/mL (≈ 106 µM) in the test on Staphylococcus aureus, 8 µg/mL (≈ 26.5 µM) in the test with Enterococcus faecalis and 16 µg/mL (≈ 52.9 µM) in the test with Bacillus subtilis. Also, the “fractional inhibitory concentration index (FICI)” value with Acinetobacter baumannii [2] amounted to 0.187.

As for `Fc1cc(Nc2nc(-c3cccnc3)cs2)cc(C(F)(F)F)c1`, the MIC against Acinetobacter baumannii [1] was 128 µg/mL (≈ 377 µM); in the test on Staphylococcus aureus, 64 µg/mL (≈ 189 µM); in the test on Enterococcus faecalis, 256 µg/mL (≈ 754 µM); in the test with Bacillus subtilis it was 256 µg/mL (≈ 754 µM). The “fractional inhibitory concentration index (FICI)” value in the test with Acinetobacter baumannii [2] is on record as 1.031.

For `Cc1cc(C(F)(F)F)ccc1Nc1nc(-c2ccc(F)cc2F)cs1`, the MIC is over 256 µg/mL in the test with Acinetobacter baumannii [1], 256 µg/mL (≈ 691 µM) in the test on Staphylococcus aureus, 256 µg/mL (≈ 691 µM) in the test with Enterococcus faecalis and 4 µg/mL (≈ 10.8 µM) in the test on Bacillus subtilis. The “fractional inhibitory concentration index (FICI)” value in the test with Acinetobacter baumannii [2] was 0.094.

Regarding `Fc1ccc(-c2csc(Nc3ccc(C(F)(F)F)cc3F)n2)c(F)c1`, the MIC in the test on Acinetobacter baumannii [1] is over 256 µg/mL; with Staphylococcus aureus, 256 µg/mL (≈ 684 µM); with Enterococcus faecalis, 256 µg/mL (≈ 684 µM); in the test on Bacillus subtilis it was 256 µg/mL (≈ 684 µM). In the test on Acinetobacter baumannii [2], the “fractional inhibitory concentration index (FICI)” value stood at 1.031.
